Reference: PubChem BioAssay AID256 (DTP/NCI, 2004)
Where “and” joins values, the source holds several entries; their conditions need not be identical. Identical values can stand only once. Toxic doses and inconclusive results are not listed. How the source made its calls: active means survival T/C of 150% or more; inactive means T/C below 125% in these data.

System: CD2F1 mice, L1210 leukemia ip, survival T/C
Assay: NCI In Vivo Anticancer Drug Screen. Data for tumor model L1210 Leukemia (intraperitoneal) in CD2F1 (CDF1) mice
Conditions: higher = longer survival
How it was run: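 Ratio T/C, where T is the treated-group value and C the vehicle-dosed control value, from mice implanted with a transplantable tumor.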

[1] = endpoint: mean survival time, dose: 50.0 mg/kg/injection, schedule: Q01DX009 (ip), vehicle: saline with Tween-80
[2] = endpoint: mean survival time, dose: 100.0 mg/kg/injection, schedule: Q01DX009 (ip), vehicle: saline with Tween-80
[3] = endpoint: mean survival time, dose: 200.0 mg/kg/injection, schedule: Q01DX009 (ip), vehicle: saline with Tween-80
[4] = endpoint: mean survival time, dose: 400.0 mg/kg/injection, schedule: Q01DX009 (ip), vehicle: saline with Tween-80
[5] = endpoint: mean survival time, dose: 100.0 mg/kg/injection, schedule: Q04DX003 (ip), vehicle: saline with Tween-80
[6] = endpoint: mean survival time, dose: 200.0 mg/kg/injection, schedule: Q04DX003 (ip), vehicle: saline with Tween-80
[7] = endpoint: mean survival time, dose: 400.0 mg/kg/injection, schedule: Q04DX003 (ip), vehicle: saline with Tween-80
[8] = endpoint: mean survival time, dose: 100.0 mg/kg/injection, schedule: Q04DX002 (ip), vehicle: saline with Tween-80
[9] = endpoint: mean survival time, dose: 200.0 mg/kg/injection, schedule: Q04DX002 (ip), vehicle: saline with Tween-80
[10] = endpoint: mean survival time, dose: 100.0 mg/kg/injection, schedule: Q04DX003 (ip), vehicle: saline
[11] = endpoint: mean survival time, dose: 200.0 mg/kg/injection, schedule: Q04DX003 (ip), vehicle: saline
[12] = endpoint: mean survival time, dose: 100.0 mg/kg/injection, schedule: Q01DX001 (ip), vehicle: saline with Tween-80
[13] = endpoint: mean survival time, dose: 200.0 mg/kg/injection, schedule: Q01DX001 (ip), vehicle: saline with Tween-80
[14] = endpoint: mean survival time, dose: 400.0 mg/kg/injection, schedule: Q01DX001 (ip), vehicle: saline with Tween-80
[15] = endpoint: mean survival time, dose: 400.0 mg/kg/injection, schedule: Q04DX002 (ip), vehicle: saline with Tween-80
[16] = endpoint: mean survival time, dose: 75.0 mg/kg/injection, schedule: Q01DX001 (ip), vehicle: saline with Tween-80
[17] = endpoint: mean survival time, dose: 150.0 mg/kg/injection, schedule: Q01DX001 (ip), vehicle: saline with Tween-80

Measured: T/C

CCCCCCCCCCCCCCCC[N+](C)(C)C
inactive: endpoint: mean survival time, dose: 1.25 mg/kg/injection, schedule: Q01DX009 (ip), vehicle: saline with Tween-80 96 % of control | endpoint: mean survival time, dose: 2.5 mg/kg/injection, schedule: Q01DX009 (ip), vehicle: saline with Tween-80 98 % of control | endpoint: mean survival time, dose: 5.0 mg/kg/injection, schedule: Q01DX009 (ip), vehicle: saline with Tween-80 94 % of control and 97 % of control | endpoint: mean survival time, dose: 5.0 mg/kg/injection, schedule: Q04DX003 (ip), vehicle: saline 96 % of control | endpoint: mean survival time, dose: 10.0 mg/kg/injection, schedule: Q04DX003 (ip), vehicle: saline 98 % of control | endpoint: mean survival time, dose: 20.0 mg/kg/injection, schedule: Q04DX003 (ip), vehicle: saline 95 % of control

Cc1ccc(NC(=O)OCCOc2ccc([N+](=O)[O-])cc2)c(C)c1
inactive: [1] 93 % of control | [2] 98 % of control | [3] 89 % of control

CN(C)[C@@H]1C(=O)C(C(=O)NCNc2nc3n[nH]nc3c(=O)[nH]2)=C(O)[C@@]2(O)C(=O)C3=C(O)c4c(O)cccc4[C@@](C)(O)[C@H]3C[C@@H]12
inactive: [1] 117 % of control | [2] 123 % of control | [4] 94 % of control

CC(C)(C)OC(=O)NCCCC(N)C(=O)O (stereo not drawn)
inactive: [5] 92 % of control | [6] 94 % of control | [7] 94 % of control

C#CC1(OC(=O)c2ccccc2)CCCCC1
inactive: [5] 98 % of control | [6] 96 % of control | [7] 102 % of control

CCCCCCCCCCCCCCCC(=O)Oc1ccc(/C(CC)=C(/CC)c2ccc(OC(=O)CCCCCCCCCCCCCCC)cc2)cc1
inactive: [2] 91 % of control

O=S1(=O)CC(Cl)(Br)C1 (tested in a mixture with another compound)
inactive: endpoint: mean survival time, dose: 50.0 mg/kg/injection, schedule: Q01DX009 (ip), vehicle: Klucel (hydroxypropylcellulose) (HPC) 92 % of control | endpoint: mean survival time, dose: 100.0 mg/kg/injection, schedule: Q01DX009 (ip), vehicle: Klucel (hydroxypropylcellulose) (HPC) 107 % of control | endpoint: mean survival time, dose: 200.0 mg/kg/injection, schedule: Q01DX009 (ip), vehicle: Klucel (hydroxypropylcellulose) (HPC) 103 % of control

C[S+](C)CC(=O)O
inactive: endpoint: mean survival time, dose: 100.0 mg/kg/injection, schedule: Q01DX009 (ip), vehicle: saline 97 % of control | endpoint: mean survival time, dose: 200.0 mg/kg/injection, schedule: Q01DX009 (ip), vehicle: saline 101 % of control | endpoint: mean survival time, dose: 400.0 mg/kg/injection, schedule: Q01DX009 (ip), vehicle: saline 92 % of control

O=[N+]([O-])O.[NH2-].[NH2-].[NH2-].[NH2-].[OH-].[OH-].[Pt+4].[Pt+4]
inactive: endpoint: mean survival time, dose: 2.5 mg/kg/injection, schedule: Q04DX003 (ip), vehicle: water 89 % of control | endpoint: mean survival time, dose: 5.0 mg/kg/injection, schedule: Q04DX003 (ip), vehicle: water 97 % of control | endpoint: median survival time, dose: 0.15 mg/kg/injection, schedule: Q04DX003 (ip), vehicle: water 97 % of control | endpoint: median survival time, dose: 0.31 mg/kg/injection, schedule: Q04DX003 (ip), vehicle: water 97 % of control

CC(O)C(=O)[O][Hg][c]1ccccc1 (stereo not drawn)
inactive: endpoint: mean survival time, dose: 10.0 mg/kg/injection, schedule: Q04DX003 (ip), vehicle: saline with Tween-80 92 % of control

COc1ccccc1NC(=O)Oc1ccc2ccccc2c1
inactive: [8] 103 % of control | [9] 91 % of control

CCOC(OCC)c1nc(N)[nH]c(=O)c1CCCCc1ccccc1
inactive: [5] 87 % of control | [6] 87 % of control | [7] 95 % of control

CCCCOC(=O)c1ccc(NC(=O)Nc2ccccc2)cc1
inactive: endpoint: mean survival time, dose: 25.0 mg/kg/injection, schedule: Q01DX009 (ip), vehicle: saline with Tween-80 92 % of control | [1] 97 % of control | [2] 93 % of control

CCCCCCCCCCCCC1C(=O)NC(=O)NC1=O
inactive: endpoint: mean survival time, dose: 75.0 mg/kg/injection, schedule: Q01DX001 (ip), vehicle: saline 100 % of control | endpoint: mean survival time, dose: 150.0 mg/kg/injection, schedule: Q01DX001 (ip), vehicle: saline 99 % of control | endpoint: mean survival time, dose: 300.0 mg/kg/injection, schedule: Q01DX001 (ip), vehicle: saline 97 % of control

O=C(O)c1ccco1
inactive: [10] 94 % of control | [11] 95 % of control

CCOc1ccc(Nc2cc(=O)[nH]c(=O)[nH]2)cc1
inactive: [12] 95 % of control | [13] 93 % of control | [14] 95 % of control

O=NN1Cc2ccccc2C1=O
inactive: [2] 96 % of control | [3] 94 % of control | [4] 94 % of control

CC(C)(CCC#N)C(O)c1ccccc1 (stereo not drawn)
inactive: endpoint: mean survival time, dose: 100.0 mg/kg/injection, schedule: Q04DX002 (ip), vehicle: other 98 % of control | endpoint: mean survival time, dose: 200.0 mg/kg/injection, schedule: Q04DX002 (ip), vehicle: other 102 % of control | endpoint: mean survival time, dose: 400.0 mg/kg/injection, schedule: Q04DX002 (ip), vehicle: other 105 % of control

O=C(COc1ccc(Cl)cc1Cl)Nc1ccccc1
inactive: [8] 91 % of control | [9] 95 % of control | [15] 98 % of control

COC(=N)CC(=O)C(C)(C)C
inactive: endpoint: mean survival time, dose: 100.0 mg/kg/injection, schedule: Q01DX001 (ip), vehicle: other 102 % of control | endpoint: mean survival time, dose: 200.0 mg/kg/injection, schedule: Q01DX001 (ip), vehicle: other 97 % of control | endpoint: mean survival time, dose: 400.0 mg/kg/injection, schedule: Q01DX001 (ip), vehicle: other 97 % of control

Cc1ccc(S(=O)(=O)N/N=C/c2ccc(Cl)s2)cc1
inactive: [12] 94 % of control | [13] 97 % of control | [14] 97 % of control

Cc1ccc(NC(=O)Nc2ccccc2Cl)c(C)c1
inactive: [5] 102 % of control | [6] 90 % of control | [7] 93 % of control

Cc1cc(=O)[nH][nH]c1=O
inactive: [2] 104 % of control | [3] 97 % of control | [4] 101 % of control

CC1(C)COC2(c3ccccc3)N1C(=C(Cl)Cl)OC(=O)C2(Cl)Cl (stereo not drawn)
inactive: [16] 101 % of control | [17] 90 % of control | endpoint: mean survival time, dose: 300.0 mg/kg/injection, schedule: Q01DX001 (ip), vehicle: saline with Tween-80 109 % of control

C/C(=N/NC(=O)c1ccccc1)c1cccc(O)c1
inactive: [2] 89 % of control | [5] 94 % of control | [6] 90 % of control | [4] 103 % of control | [7] 97 % of control

CCOc1cccc(Cc2cn(Cc3cccc(NC(=O)c4ccc(S(=O)(=O)F)cc4)c3)c(=O)[nH]c2=O)c1
inactive: [16] 100 % of control | [17] 97 % of control

Cn1c(=O)[nH]c2c(nc(-c3ccccc3)n2C)c1=O
inactive: endpoint: mean survival time, dose: 12.5 mg/kg/injection, schedule: Q01DX005 (ip), vehicle: other 87 % of control | endpoint: mean survival time, dose: 25.0 mg/kg/injection, schedule: Q01DX005 (ip), vehicle: other 96 % of control | endpoint: mean survival time, dose: 50.0 mg/kg/injection, schedule: Q01DX005 (ip), vehicle: other 89 % of control | endpoint: mean survival time, dose: 100.0 mg/kg/injection, schedule: Q01DX005 (ip), vehicle: other 94 % of control

CC1CC=C(/C=N/Nc2ccc([N+](=O)[O-])cc2[N+](=O)[O-])C(C)O1 (stereo not drawn)
inactive: [12] 107 % of control | [13] 101 % of control | [14] 98 % of control

Cc1ccc2ccccc2[n+]1[O-]
inactive: [8] 111 % of control

CCN1/C(=C/c2ccc3ccccc3[n+]2CC)C=Cc2ccccc21
inactive: endpoint: mean survival time, dose: 0.25 mg/kg/injection, schedule: Q01DX001 (ip), vehicle: other 95 % of control | endpoint: mean survival time, dose: 0.5 mg/kg/injection, schedule: Q01DX001 (ip), vehicle: other 97 % of control | endpoint: mean survival time, dose: 1.0 mg/kg/injection, schedule: Q01DX001 (ip), vehicle: other 95 % of control

C=C(Br)CNC(=O)C(F)(F)F
inactive: endpoint: mean survival time, dose: 6.25 mg/kg/injection, schedule: Q01DX009 (ip), vehicle: saline 100 % of control | endpoint: mean survival time, dose: 6.25 mg/kg/injection, schedule: Q04DX003 (ip), vehicle: saline 96 % of control | endpoint: mean survival time, dose: 12.5 mg/kg/injection, schedule: Q01DX009 (ip), vehicle: saline 102 % of control | endpoint: mean survival time, dose: 12.5 mg/kg/injection, schedule: Q04DX003 (ip), vehicle: saline 98 % of control | endpoint: mean survival time, dose: 25.0 mg/kg/injection, schedule: Q01DX009 (ip), vehicle: saline 108 % of control | endpoint: mean survival time, dose: 25.0 mg/kg/injection, schedule: Q04DX003 (ip), vehicle: saline 93 % of control

CCCCNC(=O)NC(=O)CCl
inactive: [10] 97 % of control | [11] 101 % of control | endpoint: mean survival time, dose: 400.0 mg/kg/injection, schedule: Q04DX003 (ip), vehicle: saline 97 % of control

C/C=C/COc1c(C)cc(C)cc1/C=C/C
inactive: [8] 94 % of control | [9] 94 % of control | [15] 102 % of control

O=C(CNC(=O)Nc1ccc(Cl)c(Cl)c1)NNC(=O)Nc1ccc(F)c(Cl)c1
inactive: [2] 96 % of control | [3] 95 % of control | [4] 91 % of control
